Read-outs that look alike come from different tables or passages of the source.
Assays:
Format in all cases: biochemical
[1] = target: Jak2 (human Jak2 kinase domain, amino acids 808-1132) (Homo sapiens (Human), UniProt O60674); test: Jak2 inhibition assay (Omnia kinase assay); settings: 1000 nM test compound
[2] = target: Jak1 (GST-tagged human Jak1 kinase domain, amino acids 866-1154) (Homo sapiens (Human), UniProt P23458); test: Jak1 inhibition assay (Omnia kinase assay); settings: read-out: Jak1 (% inhibition at 1000 nM); Table 2; 1000 nM test compound
Description: (§1) The assays described in Examples C, D, E and F for the determination of JAK1, JAK2, JAK3 and Tyk2 kinase activity, respectively, utilized the Omnia® Kinase fluorescence peptide substrate-based technology (Invitrogen). […] The reactions were therefore read at excitation 360 nm and emission was measured at 485 nm every 50 seconds for 45 minutes using a PerkinElmer EnVision Multilabel Plate Reader.
(§2) The final buffer conditions for each of the JAK1, JAK2, JAK3 and Tyk2 assays were as follows: 25 mM HEPES, pH 7.4, 10 mM MgCl2, 0.01% Triton X-100 and 1 mM DTT.
(§3) Compounds were prepared at 50× the final concentration in DMSO by conducting 3-fold serial dilutions from a 500-μM or 1000-μM intermediate dilution to give a 10-point dosing curve having a high dose of 10 or 20 μM. Two-μL aliquots of these were transferred to a fresh plate for a ten-fold intermediate dilution with assay buffer. Five-μL aliquots of the diluted compounds were then transferred to 20-μL of assay mixtures described in Examples C, D, E and F for a final concentration of DMSO of 2%. A standard or reference compound was typically included on each assay plate to validate that plate. For each plate, percent of control (POC) values were calculated for each well according to the following equation:
(§4) where Xmax=Average Uninhibited Controls • Xmin=Average Background IC50's were estimated from the POC's using a standard 4-parameter logistic model:
(§5) where A=Minimum Y (Bottom Asymptote) • B=Maximum Y (Top Asymptote) • C=EC50 • D=Slope Factor • X=Compound Concentration (nM) • Y=POC
(§6) The IC50 is defined as the concentration of inhibitor at which the POC equals 50 for the fitted curve.
Compounds of Formula I were screened for their ability to inhibit Jak1 using the general enzyme inhibition assay method, in which the assay mixture contained 500 μM ATP, 8 μM Omnia® Y12 peptide (Catalog # IVGN KPZ3121C; Invitrogen Corporation, Carlsbad, Calif.) and 5 nM Jak1 in a total volume of 20 μL. […] (catalog # IVGN PV4774).

[3] = target: Jak3 (GST-tagged human Jak3 kinase domain, amino acids 781-1124) (Homo sapiens (Human), UniProt P52333); test: Jak3 inhibition assay (Omnia kinase assay); settings: read-out: Jak3 (% inhibition at 1000 nM); Table 2; 1000 nM test compound
Description: as §1, §2, §3, §4, §5, §6
Compounds of Formula I were screened for their ability to inhibit Jak3 using the general enzyme inhibition assay method, in which the assay mixture contained 500 μM ATP, 10 μM Omnia® Y7 peptide (Catalog # IVGN KNZ3071C, Invitrogen Corporation, Carlsbad, Calif.) and 1.5 nM Jak3 in a total volume of 20 μL. GST-tagged human Jak3 kinase domain comprising amino acids 781-1124 was purchased from Invitrogen Corporation, Carlsbad, Calif. (catalog # IVGN PV3855).

[4] = target: Tyk2 (human Tyk2 kinase domain, amino acids 886 to 1187) (Homo sapiens (Human), UniProt P29597); test: Tyk2 inhibition assay (Omnia kinase assay); settings: read-out: Tyk2 (% inhibition at 1000 nM); Table 2; 1000 nM test compound
Description: as §1, §2, §3, §4, §5, §6
Compounds of Formula I were screened for their ability to inhibit Tyk2 using the general enzyme inhibition assay method, in which the assay mixture contained 500 μM ATP, 8 μM Omnia® Y12 peptide (Catalog # IVGN KPZ3121C; Invitrogen Corporation, Carlsbad, Calif.) and 1 nM Tyk2 in a total volume of 20 μL. Human Tyk2 kinase domain, comprising amino acids 886 to 1187 with 10 additional histidine residues (histidine tag) on the carboxy terminus, was expressed and purified from baculovirus in-house at Array BioPharma Inc. (Boulder, Colo.). The histidine tag was cleaved after purification using standard conditions.

[5] = read-out: Jak2 (% inhibition at 1000 nM), Table 2
[6] = read-out: Jak2 Enzyme (% inhibition at 1000 nM), Table 1

Sequence of Jak3 (GST-tagged human Jak3 kinase domain, amino acids 781-1124) (P52333 781-1124): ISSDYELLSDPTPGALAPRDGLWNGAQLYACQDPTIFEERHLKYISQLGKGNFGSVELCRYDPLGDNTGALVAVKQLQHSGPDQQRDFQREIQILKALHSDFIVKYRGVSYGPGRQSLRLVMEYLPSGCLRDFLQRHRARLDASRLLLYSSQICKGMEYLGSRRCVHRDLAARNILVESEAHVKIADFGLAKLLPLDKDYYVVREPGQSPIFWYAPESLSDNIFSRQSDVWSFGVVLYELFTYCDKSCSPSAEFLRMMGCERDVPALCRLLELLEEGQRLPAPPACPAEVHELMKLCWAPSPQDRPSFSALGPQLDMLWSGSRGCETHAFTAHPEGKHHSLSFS
Sequence of Tyk2 (human Tyk2 kinase domain, amino acids 886 to 1187) (P29597 886-1187): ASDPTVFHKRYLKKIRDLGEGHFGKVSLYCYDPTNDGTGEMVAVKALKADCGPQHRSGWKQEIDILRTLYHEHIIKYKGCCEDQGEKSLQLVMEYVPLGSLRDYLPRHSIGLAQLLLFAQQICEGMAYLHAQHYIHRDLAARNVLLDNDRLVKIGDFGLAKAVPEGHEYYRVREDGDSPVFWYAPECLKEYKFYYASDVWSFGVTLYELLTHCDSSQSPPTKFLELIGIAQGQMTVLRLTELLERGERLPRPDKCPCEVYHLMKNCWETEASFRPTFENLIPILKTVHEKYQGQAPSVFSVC
Sequence of Jak2 (human Jak2 kinase domain, amino acids 808-1132) (O60674 808-1132): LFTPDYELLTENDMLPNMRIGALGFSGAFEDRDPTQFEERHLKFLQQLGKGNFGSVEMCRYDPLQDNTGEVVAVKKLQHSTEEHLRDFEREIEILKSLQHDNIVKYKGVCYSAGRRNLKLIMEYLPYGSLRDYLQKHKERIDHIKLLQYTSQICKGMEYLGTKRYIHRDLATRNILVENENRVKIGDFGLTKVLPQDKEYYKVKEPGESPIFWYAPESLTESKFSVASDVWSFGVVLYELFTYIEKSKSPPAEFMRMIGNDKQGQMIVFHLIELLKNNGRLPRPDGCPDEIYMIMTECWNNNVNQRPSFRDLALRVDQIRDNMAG
Sequence of Jak1 (GST-tagged human Jak1 kinase domain, amino acids 866-1154) (P23458 866-1154): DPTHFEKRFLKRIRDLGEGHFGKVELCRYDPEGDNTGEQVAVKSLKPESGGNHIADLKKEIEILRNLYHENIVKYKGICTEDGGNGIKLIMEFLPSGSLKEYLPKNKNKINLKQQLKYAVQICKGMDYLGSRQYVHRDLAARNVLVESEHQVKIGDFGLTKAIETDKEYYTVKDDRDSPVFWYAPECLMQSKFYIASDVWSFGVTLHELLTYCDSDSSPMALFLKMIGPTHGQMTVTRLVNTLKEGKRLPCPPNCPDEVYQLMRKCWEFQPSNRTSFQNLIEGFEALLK

inhibition at 1 µM [1, 5] [%]	inhibition at 1 µM [1, 6] [%]	inhibition at 1 µM [2] [%]	inhibition at 1 µM [3] [%]	inhibition at 1 µM [4] [%]	Structure (SMILES)
72.3	53.3	36.4	7.2	16.2	C[C@H](NC(=O)c1cnn2ccc(N3CCC[C@@H]3c3cncc(F)c3)nc12)C1CC1 [Example 124, N-((S)-1-cyclopropylethyl)-5-((R)-2-(5-fluoropyridin-3-yl)pyrrolidin-1-yl)pyrazolo[1,5-a]pyrimidine-3-carboxamide]
37.6	31.2	7.4	2.6	8.1	Cc1ncc(F)cc1[C@H]1CCCN1c1ccn2ncc(C(=O)N[C@H]3CC[C@H](O)CC3)c2n1 [Example 194, 5-((R)-2-(5-fluoro-2-methylpyridin-3-yl)pyrrolidin-1-yl)-N-((trans)-4-hydroxycyclohexyl)pyrazolo[1,5-a]pyrimidine-3-carboxamide]
49.1	38.8	22	8.9	14.4	C[C@@H](NC(=O)c1cnn2ccc(N3CCC[C@@H]3c3cncc(F)c3)nc12)C1CC1 [Example 123, N-((R)-1-cyclopropylethyl)-5-((R)-2-(5-fluoropyridin-3-yl)pyrrolidin-1-yl)pyrazolo[1,5-a]pyrimidine-3-carboxamide]
33.9	28.4	14.3	7.2	13.4	Cc1ncc(F)cc1[C@H]1CCCN1c1ccn2ncc(C(=O)NC3(C)CC3)c2n1 [Example 190, (R)-5-(2-(5-fluoro-2-methylpyridin-3-yl)pyrrolidin-1-yl)-N-(1-methylcyclopropyl)pyrazolo[1,5-a]pyrimidine-3-carboxamide]
	0.7				O=C(NCCN1CCC(O)CC1)c1cnn2ccc(N3CCC[C@@H]3c3cc(F)ccc3F)nc12 [Example 170, 5-((R)-2-(2,5-difluorophenyl)pyrrolidin-1-yl)-N-(2-(4-hydroxypiperidin-1-yl)ethyl)pyrazolo[1,5-a]pyrimidine-3-carboxamide]
98.5	90.1	64.2	20.2	34.8	COc1ncc(F)cc1[C@H]1CCCN1c1ccn2ncc(C(=O)N[C@H]3CC[C@H](O)CC3)c2n1 [Example 140, 5-((R)-2-(5-fluoro-2-methoxypyridin-3-yl)pyrrolidin-1-yl)-N-((trans)-4-hydroxycyclohexyl)pyrazolo[1,5-a]pyrimidine-3-carboxamide]
	6.1				CC(C)(CO)CNC(=O)c1cnn2ccc(N3CCC[C@@H]3c3cncc(F)c3)nc12 [Example 125, (R)-5-(2-(5-fluoropyridin-3-yl)pyrrolidin-1-yl)-N-(3-hydroxy-2,2-dimethylpropyl)pyrazolo[1,5-a]pyrimidine-3-carboxamide]
15.6	5	10.9	8.5	11.4	CNC(=O)c1cnn2ccc(N3CCC[C@@H]3c3cncc(F)c3)nc12 [Example 114, (R)-5-(2-(5-fluoropyridin-3-yl)pyrrolidin-1-yl)-N-methylpyrazolo[1,5-a]pyrimidine-3-carboxamide]
	44.3				COc1ncc(F)cc1[C@H]1CCCN1c1ccn2ncc(C(=O)NCCCO)c2n1 [Example 148, (R)-5-(2-(5-fluoro-2-methoxypyridin-3-yl)pyrrolidin-1-yl)-N-(3-hydroxypropyl)pyrazolo[1,5-a]pyrimidine-3-carboxamide]

Further lines, the molecule ahead of its results:

Structure (SMILES)	inhibition at 1 µM [1, 5] [%]	inhibition at 1 µM [1, 6] [%]	inhibition at 1 µM [2] [%]	inhibition at 1 µM [3] [%]	inhibition at 1 µM [4] [%]
O=C(NCC1CC1)c1cnn2ccc(N3CCC[C@@H]3c3cncc(F)c3)nc12 [Example 106, (R)-N-(cyclopropylmethyl)-5-(2-(5-fluoropyridin-3-yl)pyrrolidin-1-yl)pyrazolo[1,5-a]pyrimidine-3-carboxamide]	21	8	8.2	9.7	14.8
CC1(NC(=O)c2cnn3ccc(N4CCC[C@@H]4c4cncc(F)c4)nc23)CC1 [Example 91, (R)-5-(2-(5-fluoropyridin-3-yl)pyrrolidin-1-yl)-N-(1-methylcyclopropyl)pyrazolo[1,5-a]pyrimidine-3-carboxamide]	42.1	34.9	20.3	8.3	14.8
O=C(NC1(C(F)(F)F)CC1)c1cnn2ccc(N3CCC[C@@H]3c3cncc(F)c3)nc12 [Example 98, (R)-5-(2-(5-fluoropyridin-3-yl)pyrrolidin-1-yl)-N-(1-(trifluoromethyl)cyclopropyl)pyrazolo[1,5-a]pyrimidine-3-carboxamide]	27.8	23.7	8.8	5.5	9.2
NC(=O)c1cnn2ccc(N3CCC[C@@H]3c3cc(F)ccc3F)nc12 [Example 30, (R)-5-(2-(2,5-difluorophenyl)pyrrolidin-1-yl)pyrazolo[1,5-a]pyrimidine-3-carboxamide]	30.4	25.7	13.4	2.9	11.3
CC(C)NC(=O)c1cnn2ccc(N3CCC[C@@H]3c3cncc(F)c3)nc12 [Example 93, (R)-5-(2-(5-fluoropyridin-3-yl)pyrrolidin-1-yl)-N-isopropylpyrazolo[1,5-a]pyrimidine-3-carboxamide]	42.2	34.7	19.7	10.6	17.2
O=C(NC1CC1)c1cnn2ccc(N3CCC[C@@H]3c3cncc(F)c3)nc12 [Example 52, (R)—N-cyclopropyl-5-(2-(5-fluoropyridin-3-yl)pyrrolidin-1-yl)pyrazolo[1,5-a]pyrimidine-3-carboxamide]	13	9.4	8.6	0.8	13.8
CC(C)(C)NC(=O)c1cnn2ccc(N3CCC[C@@H]3c3cncc(F)c3)nc12 [Example 53, (R)—N-tert-butyl-5-(2-(5-fluoropyridin-3-yl)pyrrolidin-1-yl)pyrazolo[1,5-a]pyrimidine-3-carboxamide]		8.7			
O=C(NC1(C(=O)O)CC1)c1cnn2ccc(N3CCC[C@@H]3c3cc(F)ccc3F)nc12 [Example 84, (R)-1-(5-(2-(2,5-difluorophenyl)pyrrolidin-1-yl)pyrazolo[1,5-a]pyrimidine-3-carboxamido)cyclopropanecarboxylic Acid]		2.7			
COCCOc1cc(F)cc([C@H]2CCCN2c2ccn3ncc(C(N)=O)c3n2)c1 [Example 78, (R)-5-(2-(3-fluoro-5-(2-methoxyethoxy)phenyl)pyrrolidin-1-yl)pyrazolo[1,5-a]pyrimidine-3-carboxamide]		5.8			
O=C(NCCc1c[nH]cn1)c1cnn2ccc(N3CCC[C@@H]3c3cc(F)ccc3F)nc12 [Example 25, (R)—N-(2-(1H-imidazol-4-yl)ethyl)-5-(2-(2,5-difluorophenyl)pyrrolidin-1-yl)pyrazole [1,5-a]pyrimidine-3-carboxamide]		19.4			

Reference: patent US10251889B2, “Substituted pyrazolo[1,5-a]pyrimidine compounds as Trk kinase inhibitors” (Array BioPharma, Inc., priority 2009, dated 2019)
